In US20260317370A1, “METHOD OF DEPROTECTING AT LEAST ONE D-AMINO ACID AND/OR D-AMINO ACID DERIVATIVE PROTECTED FUNCTIONAL GROUP” (Martin-Luther-Universität Halle-Wittenberg, priority 2023, published 2026):
Counter-ions that a name gives are not always drawn.

Experiments:
Test in all cases: additive influence on activity of D-stereospecific hydrolytic enzyme
Format in all cases: biochemical
Settings in all cases: role: inhibitor (additive); substrate Abz-AAfFAAK(DNP)-OH
[1] = molecular target: T1, D-stereospecific hydrolytic enzyme, SEQ ID No. 8 (Bacillus thuringiensis, UniProt A0A1W6WYC6)
T1 construct: E. coli, purified
T1 sequence (A0A1W6WYC6 40-389): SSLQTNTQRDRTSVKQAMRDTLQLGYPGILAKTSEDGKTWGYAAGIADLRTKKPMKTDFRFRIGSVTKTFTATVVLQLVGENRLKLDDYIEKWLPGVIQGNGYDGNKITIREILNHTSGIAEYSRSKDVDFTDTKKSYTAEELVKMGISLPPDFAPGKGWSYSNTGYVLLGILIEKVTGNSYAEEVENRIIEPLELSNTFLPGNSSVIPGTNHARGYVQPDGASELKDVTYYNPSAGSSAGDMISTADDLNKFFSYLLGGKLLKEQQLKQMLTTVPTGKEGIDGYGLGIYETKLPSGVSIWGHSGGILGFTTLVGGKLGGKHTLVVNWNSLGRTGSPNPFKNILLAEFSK
Experimental: (§1) In further experiments, the hydrolysis reaction using D-stereospecific hydrolytic enzymes with SEQ ID No. 4, No. 6, No. 7, No. 8, No. 9 was carried out with internally quenched fluorogenic substrates (IQFS) (Abz-AAX/xaaFAAK(DNP)-OH) (Abz=2-aminobenzoic acid, DNP=2,4-dinitrophenol). By cleavage of the IQFS, a fluorescence signal is released and can be monitored by continuous fluorescence measurement (0.1 M NaPi, pH 8.0, 1% DMSO (v/v), 5-1000 nM enzyme, excitation wavelength 320 nm emission wavelength 420 nm, reaction volume 100 μl, 96-well micro titer plate, time scale 2 h). The respective model reaction is shown below (Formula 5). In Formula 5 DHy represents the respective D-stereospecific hydrolytic enzyme.
(§2) In addition, experiments were performed to investigate the effect of adding different additives in different concentrations based on the reaction mixture on the activity of D-stereospecific hydrolytic enzymes. The concentration of the respective additive was varied between 0 to 2.5 M. As additives, urea, guanidinium hydrochloride, NaCl and ß-mercaptoethanol (ß-ME) were used. The additives were added to the reaction mixture including the D-stereospecific hydrolytic enzyme and the peptide Abz-AAfFAAK(DNP)-OH. As D-stereospecific hydrolytic enzymes the D-stereospecific hydrolytic enzymes with SEQ ID No. 4, No. 6, No. 7, No. 8 and No. 9 were used.
(§3) The relative activity, in this case, is calculated by dividing the activity when adding an additive with a different concentration by the maximum activity of the respective D-stereospecific enzyme.
(§4) In Table 11, the concentration of additive (M) based on the reaction mixture at which 50% (*) or 10% (**) of the relative specific activity of the respective enzyme is still present is indicated.

[2] = molecular target: T2, D-stereospecific hydrolytic enzyme, SEQ ID No. 6 (Bacillus thuringiensis, UniProt A0A1W6WPG2)
T2 construct: E. coli, purified; crystallized, P21
T2 sequence (A0A1W6WPG2 40-385): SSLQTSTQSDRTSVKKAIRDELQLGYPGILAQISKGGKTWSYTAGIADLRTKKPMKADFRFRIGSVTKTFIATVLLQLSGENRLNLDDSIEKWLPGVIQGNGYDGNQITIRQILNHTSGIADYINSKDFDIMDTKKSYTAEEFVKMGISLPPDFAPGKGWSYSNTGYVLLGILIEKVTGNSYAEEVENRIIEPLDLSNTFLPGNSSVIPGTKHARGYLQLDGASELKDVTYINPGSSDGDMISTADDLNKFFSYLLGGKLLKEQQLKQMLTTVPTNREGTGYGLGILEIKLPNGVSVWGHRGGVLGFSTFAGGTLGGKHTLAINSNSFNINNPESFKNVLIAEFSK
Experimental: as §1, §2, §3, §4

[3] = molecular target: T3, D-stereospecific hydrolytic enzyme, SEQ ID No. 7 (Bacillus thuringiensis, UniProt A0A1W6WPK6)
T3 construct: E. coli, purified
T3 sequence (A0A1W6WPK6 41-389): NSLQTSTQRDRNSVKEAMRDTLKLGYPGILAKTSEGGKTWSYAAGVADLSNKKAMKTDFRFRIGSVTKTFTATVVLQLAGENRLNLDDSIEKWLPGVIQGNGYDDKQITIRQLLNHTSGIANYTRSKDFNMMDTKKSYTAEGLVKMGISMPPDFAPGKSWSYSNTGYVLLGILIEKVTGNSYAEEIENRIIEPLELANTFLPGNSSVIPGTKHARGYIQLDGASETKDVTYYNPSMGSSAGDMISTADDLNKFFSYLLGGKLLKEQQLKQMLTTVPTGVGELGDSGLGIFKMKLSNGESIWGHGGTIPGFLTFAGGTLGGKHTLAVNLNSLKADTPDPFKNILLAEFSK
Experimental: as §1, §2, §3, §4

[4] = molecular target: T4, D-stereospecific hydrolytic enzyme, SEQ ID No. 4 (Bacillus cereus, UniProt P94288)
T4 construct: initiator Met form is 4A; E. coli, purified by ion exchange and gel filtration
T4 sequence (P94288 entry or part of it): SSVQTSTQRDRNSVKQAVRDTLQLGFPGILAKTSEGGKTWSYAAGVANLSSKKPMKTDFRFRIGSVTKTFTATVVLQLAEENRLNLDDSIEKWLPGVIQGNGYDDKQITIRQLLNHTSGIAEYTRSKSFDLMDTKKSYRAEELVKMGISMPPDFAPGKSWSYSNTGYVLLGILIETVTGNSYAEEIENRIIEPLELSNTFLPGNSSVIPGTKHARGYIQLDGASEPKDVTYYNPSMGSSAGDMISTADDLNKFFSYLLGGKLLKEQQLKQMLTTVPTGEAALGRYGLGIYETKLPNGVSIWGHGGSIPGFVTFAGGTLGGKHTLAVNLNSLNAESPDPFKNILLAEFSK
Experimental: as §1, §2, §3, §4

[5] = molecular target: T5, D-stereospecific hydrolytic enzyme, SEQ ID No. 9 (Bacillus thuringiensis, UniProt A0A1W6WP87)
T5 construct: E. coli, purified
T5 sequence (A0A1W6WP87 38-388): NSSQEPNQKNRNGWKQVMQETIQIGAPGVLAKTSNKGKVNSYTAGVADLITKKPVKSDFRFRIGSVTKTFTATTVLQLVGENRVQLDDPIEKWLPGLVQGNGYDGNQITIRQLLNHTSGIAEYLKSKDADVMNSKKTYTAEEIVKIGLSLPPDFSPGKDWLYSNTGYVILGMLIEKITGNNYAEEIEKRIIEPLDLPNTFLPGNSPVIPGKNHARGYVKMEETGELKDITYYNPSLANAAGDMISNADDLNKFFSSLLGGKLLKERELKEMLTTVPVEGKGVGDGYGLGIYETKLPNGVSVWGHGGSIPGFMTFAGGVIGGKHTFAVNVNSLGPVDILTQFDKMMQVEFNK
Experimental: as §1, §2, §3, §4

In the case of `N=C(N)N` [GdmCl, guanidinium hydrochloride], the “concentration of additive at which 10% of the relative specific activity is still present” value [1] is reported as 1.00 M, the “concentration of additive at which 10% of the relative specific activity is still present” value [2] is reported as 0.50 M and the “concentration of additive at which 10% of the relative specific activity is still present” value [3] is reported as 0.50 M. For the same compound, the “concentration of additive at which 10% of the relative specific activity is still present” value [4] was 1.00 M and the “concentration of additive at which 10% of the relative specific activity is still present” value [5] was 1.25 M.
In the case of `NC(N)=O` [urea], the “concentration of additive at which 10% of the relative specific activity is still present” value [1] is reported as 2.00 M, the “concentration of additive at which 10% of the relative specific activity is still present” value [2] is reported as 2.00 M and the “concentration of additive at which 10% of the relative specific activity is still present” value [3] is reported as 1.50 M. The “concentration of additive at which 10% of the relative specific activity is still present” value [4] was 1.25 M and the “concentration of additive at which 10% of the relative specific activity is still present” value [5] was 2.25 M.
With `OCCS` [β-ME, ß-mercaptoethanol] the “concentration of additive at which 10% of the relative specific activity is still present” value [1] was 0.50 M, the “concentration of additive at which 10% of the relative specific activity is still present” value [2] was 0.50 M and the “concentration of additive at which 10% of the relative specific activity is still present” value [3] was 0.50 M. The “concentration of additive at which 10% of the relative specific activity is still present” value [4] was less than 0.25 M and the “concentration of additive at which 10% of the relative specific activity is still present” value [5] was 0.50 M.
